Measured values reported in article PMC4457528, “Identification of Novel Small Molecule Inhibitors of Oncogenic RET Kinase” (PLoS ONE, 2015).
Read-outs that look alike come from different tables or passages of the source.

Key:
Assay in all cases: KinomeScan kinase panel, single concentration 10 µM
Assay type in all cases: binding
[1] = molecular target: T1, KinomeScan kinase panel (Homo sapiens, UniProt O43318); settings: read-out: score (%)
T1 construct: purchased DiscoveRx (KinomeScan)
T1 sequence (O43318 1-606): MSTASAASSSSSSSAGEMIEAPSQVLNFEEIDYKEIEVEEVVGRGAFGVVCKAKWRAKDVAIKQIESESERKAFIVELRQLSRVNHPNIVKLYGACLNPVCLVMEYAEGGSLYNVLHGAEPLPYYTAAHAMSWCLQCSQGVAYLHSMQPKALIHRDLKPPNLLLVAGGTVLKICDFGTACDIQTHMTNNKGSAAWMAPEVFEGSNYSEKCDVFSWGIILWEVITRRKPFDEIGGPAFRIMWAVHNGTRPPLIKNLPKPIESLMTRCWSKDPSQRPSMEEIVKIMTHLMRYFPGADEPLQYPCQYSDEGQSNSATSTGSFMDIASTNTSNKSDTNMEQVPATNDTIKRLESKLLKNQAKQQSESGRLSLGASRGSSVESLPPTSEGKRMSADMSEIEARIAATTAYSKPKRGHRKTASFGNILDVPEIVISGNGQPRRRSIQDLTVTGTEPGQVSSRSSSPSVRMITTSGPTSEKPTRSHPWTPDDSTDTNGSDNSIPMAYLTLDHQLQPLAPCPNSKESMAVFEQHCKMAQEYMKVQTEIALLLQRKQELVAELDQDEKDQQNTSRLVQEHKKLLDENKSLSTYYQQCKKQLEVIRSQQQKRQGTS

[2] = molecular target: T2, KinomeScan kinase panel (Homo sapiens, UniProt P21802); settings: FGFR2, 10 µM; read-out: score (%)
T2 construct: purchased DiscoveRx (KinomeScan)
T2 sequence (P21802 22-821): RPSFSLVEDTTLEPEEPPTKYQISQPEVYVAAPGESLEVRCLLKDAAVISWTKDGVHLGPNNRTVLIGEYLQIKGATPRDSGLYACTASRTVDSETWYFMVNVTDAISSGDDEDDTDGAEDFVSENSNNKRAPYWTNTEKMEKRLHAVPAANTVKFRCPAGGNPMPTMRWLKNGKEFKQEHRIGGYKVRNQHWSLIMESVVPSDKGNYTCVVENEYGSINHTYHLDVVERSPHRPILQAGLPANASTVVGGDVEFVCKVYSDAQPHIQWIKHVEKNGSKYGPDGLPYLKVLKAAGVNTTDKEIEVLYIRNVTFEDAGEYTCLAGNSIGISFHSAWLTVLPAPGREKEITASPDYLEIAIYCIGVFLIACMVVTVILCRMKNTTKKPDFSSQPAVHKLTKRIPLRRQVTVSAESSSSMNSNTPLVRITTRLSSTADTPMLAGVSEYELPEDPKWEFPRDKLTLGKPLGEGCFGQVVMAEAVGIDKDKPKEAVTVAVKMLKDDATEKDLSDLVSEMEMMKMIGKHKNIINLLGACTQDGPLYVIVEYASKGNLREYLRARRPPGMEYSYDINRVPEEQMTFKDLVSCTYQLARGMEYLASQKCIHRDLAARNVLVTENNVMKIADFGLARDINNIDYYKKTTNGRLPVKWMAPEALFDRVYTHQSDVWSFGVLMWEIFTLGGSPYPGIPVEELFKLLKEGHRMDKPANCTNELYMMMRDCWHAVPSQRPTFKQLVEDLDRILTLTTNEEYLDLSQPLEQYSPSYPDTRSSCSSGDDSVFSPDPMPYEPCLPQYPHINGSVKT

[3] = molecular target: T3, KinomeScan kinase panel (Homo sapiens, UniProt P36894); settings: BMPR1A, 10 µM; read-out: score (%)
T3 construct: purchased DiscoveRx (KinomeScan)
T3 sequence (P36894 24-532): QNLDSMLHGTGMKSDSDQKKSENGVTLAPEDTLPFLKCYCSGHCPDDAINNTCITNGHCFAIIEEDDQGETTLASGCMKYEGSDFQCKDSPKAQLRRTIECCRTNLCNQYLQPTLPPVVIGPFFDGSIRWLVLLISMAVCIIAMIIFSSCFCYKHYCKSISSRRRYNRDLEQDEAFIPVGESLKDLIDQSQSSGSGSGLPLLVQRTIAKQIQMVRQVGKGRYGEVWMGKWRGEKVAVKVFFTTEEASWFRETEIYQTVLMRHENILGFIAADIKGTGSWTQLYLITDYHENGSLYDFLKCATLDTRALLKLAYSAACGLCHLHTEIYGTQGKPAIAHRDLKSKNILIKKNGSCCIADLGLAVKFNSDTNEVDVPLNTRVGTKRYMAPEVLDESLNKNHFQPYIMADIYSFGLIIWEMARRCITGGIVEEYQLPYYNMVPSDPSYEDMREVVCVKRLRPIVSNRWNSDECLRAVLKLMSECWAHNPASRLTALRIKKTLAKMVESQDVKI

[4] = molecular target: T4, KinomeScan kinase panel (Homo sapiens, UniProt Q00536); settings: PCTK1, 10 µM; read-out: score (%)
T4 construct: purchased DiscoveRx (KinomeScan)
T4 sequence (Q00536 whole entry): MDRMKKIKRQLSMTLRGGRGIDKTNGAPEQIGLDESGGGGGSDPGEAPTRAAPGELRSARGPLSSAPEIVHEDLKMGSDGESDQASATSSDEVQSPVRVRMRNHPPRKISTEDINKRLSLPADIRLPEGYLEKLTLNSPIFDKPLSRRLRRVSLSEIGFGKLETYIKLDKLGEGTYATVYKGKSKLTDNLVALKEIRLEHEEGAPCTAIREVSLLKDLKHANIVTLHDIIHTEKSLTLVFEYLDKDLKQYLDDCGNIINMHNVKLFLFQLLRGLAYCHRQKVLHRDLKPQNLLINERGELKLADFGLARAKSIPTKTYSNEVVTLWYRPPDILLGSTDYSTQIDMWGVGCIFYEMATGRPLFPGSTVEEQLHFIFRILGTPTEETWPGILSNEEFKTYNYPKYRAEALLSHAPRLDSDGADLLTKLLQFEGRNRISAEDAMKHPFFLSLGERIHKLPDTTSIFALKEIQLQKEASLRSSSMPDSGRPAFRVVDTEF

[5] = molecular target: T5, KinomeScan kinase panel (Homo sapiens, UniProt Q8NFD2); settings: ANKK1, 10 µM; read-out: score (%)
T5 construct: purchased DiscoveRx (KinomeScan)
T5 sequence (Q8NFD2 1-765): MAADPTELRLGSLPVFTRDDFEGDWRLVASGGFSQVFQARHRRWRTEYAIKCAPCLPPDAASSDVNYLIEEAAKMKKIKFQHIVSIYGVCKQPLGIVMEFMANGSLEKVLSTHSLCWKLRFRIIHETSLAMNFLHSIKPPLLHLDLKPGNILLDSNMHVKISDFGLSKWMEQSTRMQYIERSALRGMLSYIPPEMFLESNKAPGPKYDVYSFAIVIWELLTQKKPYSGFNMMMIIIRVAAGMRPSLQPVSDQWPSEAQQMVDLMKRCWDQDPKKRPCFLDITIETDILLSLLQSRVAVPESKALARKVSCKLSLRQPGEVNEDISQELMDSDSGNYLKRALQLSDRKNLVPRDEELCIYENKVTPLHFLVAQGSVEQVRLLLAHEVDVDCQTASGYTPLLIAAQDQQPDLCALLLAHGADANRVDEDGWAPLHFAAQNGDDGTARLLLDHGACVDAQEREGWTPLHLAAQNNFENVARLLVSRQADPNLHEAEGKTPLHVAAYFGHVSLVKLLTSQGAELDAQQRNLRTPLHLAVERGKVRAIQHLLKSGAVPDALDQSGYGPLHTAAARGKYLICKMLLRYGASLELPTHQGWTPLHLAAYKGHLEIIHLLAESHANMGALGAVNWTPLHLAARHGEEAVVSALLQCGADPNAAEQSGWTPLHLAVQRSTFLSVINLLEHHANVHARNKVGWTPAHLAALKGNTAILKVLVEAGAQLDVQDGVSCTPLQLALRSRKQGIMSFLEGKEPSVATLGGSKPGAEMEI

[6] = molecular target: T6, KinomeScan kinase panel (Homo sapiens, UniProt Q8TDC3); settings: BRSK1, 10 µM; read-out: score (%)
T6 construct: purchased DiscoveRx (KinomeScan)
T6 sequence (Q8TDC3 1-778): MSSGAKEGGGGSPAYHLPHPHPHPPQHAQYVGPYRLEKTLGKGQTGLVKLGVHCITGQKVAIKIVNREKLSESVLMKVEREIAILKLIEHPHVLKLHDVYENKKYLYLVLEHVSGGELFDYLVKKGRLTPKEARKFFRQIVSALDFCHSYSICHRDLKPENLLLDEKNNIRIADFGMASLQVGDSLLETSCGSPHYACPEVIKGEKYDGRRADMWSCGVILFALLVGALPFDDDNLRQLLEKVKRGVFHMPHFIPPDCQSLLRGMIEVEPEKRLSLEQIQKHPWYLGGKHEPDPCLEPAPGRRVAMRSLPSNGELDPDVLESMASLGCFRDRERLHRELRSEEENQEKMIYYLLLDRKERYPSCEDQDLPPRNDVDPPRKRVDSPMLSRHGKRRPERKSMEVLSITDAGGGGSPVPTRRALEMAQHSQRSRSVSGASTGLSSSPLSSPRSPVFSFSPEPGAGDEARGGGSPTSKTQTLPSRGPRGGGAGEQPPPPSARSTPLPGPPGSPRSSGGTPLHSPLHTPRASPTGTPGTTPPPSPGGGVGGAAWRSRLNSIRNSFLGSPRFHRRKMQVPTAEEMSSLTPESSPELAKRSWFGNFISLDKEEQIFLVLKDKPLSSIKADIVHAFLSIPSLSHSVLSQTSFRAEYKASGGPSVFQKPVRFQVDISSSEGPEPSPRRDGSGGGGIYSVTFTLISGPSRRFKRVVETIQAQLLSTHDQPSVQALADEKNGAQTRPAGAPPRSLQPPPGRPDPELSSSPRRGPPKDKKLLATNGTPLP

remaining binding at 10 µM ([1]; TAK1, 10 µM) | Compound | remaining binding at 10 µM ([1]; kinase TAK1, 10 µM) | remaining binding at 10 µM [2] | remaining binding at 10 µM [3] | remaining binding at 10 µM [4] | remaining binding at 10 µM [5] | remaining binding at 10 µM [6]
 | CCN1CCN(Cc2ccc(NC(=O)c3ccc(C)c(NC(=O)c4cncc(-c5cccs5)c4)c3)cc2C(F)(F)F)CC1 [ALW-II-41-27] | 0% | 4.3% | > 30% | > 30% | 1.4% | > 30%
0.1% | CCN1CCN(Cc2ccc(NC(=O)c3ccc(C)c(/C=C/c4cnc5[nH]ccc5c4Cl)c3)cc2C(F)(F)F)CC1 [HG-6-63-01, (E)-3-(2-(4-chloro-1H-pyrrolo[2,3-b]pyridin-5-yl)vinyl)-N-(4-((4-ethylpiperazin-1-yl)methyl)-3-(trifluoromethyl)phenyl)-4-methylbenzamide] |  | 1.6% | > 30% | > 30% | 0.4% | > 30%
 | CCN1CCN(Cc2ccc(NC(=O)c3ccc(C)c(C#Cc4cccnc4)c3)cc2C(F)(F)F)CC1 [XMD15-44] | 0.2% | 0.5% | > 30% | 8.4% | 8.2% | > 30%
